{
  "source": "ChEMBL document CHEMBL1139598",
  "about": "“A discriminant model constructed by the support vector machine method for HERG potassium channel inhibitors” (Bioorg Med Chem Lett, 2005)",
  "data": [
    {"target": "Voltage-gated inwardly rectifying potassium channel KCNH2 (Homo sapiens, UniProt Q12809)", "sequence (Q12809 whole entry)": "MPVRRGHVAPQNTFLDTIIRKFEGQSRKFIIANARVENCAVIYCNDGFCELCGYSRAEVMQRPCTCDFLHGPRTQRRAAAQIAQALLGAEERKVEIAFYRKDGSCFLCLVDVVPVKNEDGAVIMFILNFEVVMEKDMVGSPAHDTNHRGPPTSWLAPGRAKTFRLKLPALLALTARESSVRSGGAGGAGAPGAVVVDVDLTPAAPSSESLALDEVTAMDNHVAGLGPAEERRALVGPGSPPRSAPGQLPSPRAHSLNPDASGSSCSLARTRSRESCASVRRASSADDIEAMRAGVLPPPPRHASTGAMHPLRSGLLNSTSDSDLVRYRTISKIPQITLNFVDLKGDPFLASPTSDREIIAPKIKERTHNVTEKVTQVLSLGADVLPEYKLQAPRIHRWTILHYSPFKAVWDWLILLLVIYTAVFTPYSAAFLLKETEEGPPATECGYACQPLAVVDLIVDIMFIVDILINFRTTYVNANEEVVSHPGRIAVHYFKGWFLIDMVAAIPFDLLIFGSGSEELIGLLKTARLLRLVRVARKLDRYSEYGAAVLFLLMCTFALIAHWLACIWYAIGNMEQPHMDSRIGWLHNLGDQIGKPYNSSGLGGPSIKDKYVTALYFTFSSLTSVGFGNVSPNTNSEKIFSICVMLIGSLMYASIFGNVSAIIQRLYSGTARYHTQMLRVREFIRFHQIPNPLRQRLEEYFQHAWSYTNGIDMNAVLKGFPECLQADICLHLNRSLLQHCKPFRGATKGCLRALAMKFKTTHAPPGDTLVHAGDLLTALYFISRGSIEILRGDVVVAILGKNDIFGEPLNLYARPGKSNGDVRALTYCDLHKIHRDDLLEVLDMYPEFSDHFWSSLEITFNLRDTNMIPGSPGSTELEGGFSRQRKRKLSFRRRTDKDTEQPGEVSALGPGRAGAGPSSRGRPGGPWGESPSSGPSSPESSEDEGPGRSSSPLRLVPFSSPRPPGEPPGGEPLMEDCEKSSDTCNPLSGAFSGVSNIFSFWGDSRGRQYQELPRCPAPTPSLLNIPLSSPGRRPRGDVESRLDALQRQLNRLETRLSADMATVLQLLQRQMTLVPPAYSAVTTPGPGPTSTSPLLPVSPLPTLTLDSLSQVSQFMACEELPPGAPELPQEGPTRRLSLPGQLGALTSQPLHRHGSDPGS", "assay": "Inhibitory concentration against potassium channel HERG", "units": {"IC50": "µM"}, "values": [
      {"compound": "CC[C@H](OC(C)=O)C(C[C@H](C)N(C)C)(c1ccccc1)c1ccccc1", "note": "[LEVOMETHADYL ACETATE]", "IC50": 2.19},
      {"compound": "COc1ccc2c3c1O[C@H]1[C@@H](O)C=C[C@H]4[C@@H](C2)N(C)CC[C@@]341", "note": "[CODEINE]", "IC50": 302},
      {"compound": "CCC(=O)C(CC(C)N(C)C)(c1ccccc1)c1ccccc1", "note": "(centres undefined) [METHADONE]", "IC50": 9.77},
      {"compound": "COc1cc2nc(N3CCN(C(=O)c4ccco4)CC3)nc(N)c2cc1OC", "note": "[PRAZOSIN]", "IC50": 1.58}
    ]}
  ]
}
